Reference: patent publication US9012655B2, “Antimicrobial/adjuvant compounds and methods” (Denouamed, Inc., priority 2011, dated 2015)
In brackets after ≈: the same amount, converted by molar mass.

Key:
Assay in all cases: MIC panel of challenge pathogens (CLSI)
Type in all cases: cell-based
[1] = tested on: Staphylococcus epidermidis NRS7; details: Staphylococcus epidermidis
Procedure: (§1) The inocula for each bacterial strain were prepared by picking 5-10 distinct colonies from the culture plates and suspending them in the appropriate broth as per Clinical and Laboratory Standards Institute (CLSI) guidelines M07-A8, M24-A or M11-A7 as appropriate. The inoculum was resuspended by vigorous shaking on a vortex mixer for 15 s. The turbidity was then adjusted to McFarland standard 0.5 ([…]). The inoculum was further diluted in the appropriate media for MIC tests to give a final inoculum in each well of 2-8×10^5 CFU/ml. MICs were tested in the appropriate broth in accordance with the appropriate CLSI guidelines.
(§2) A stock solution of each compound was prepared at a concentration of 1.28 g/L in DMSO. The stock was further diluted in the appropriate media to give a top starting concentration of 128 mg/L in the assay. 100 μL of the appropriate media, as per CLSI guidelines, was dispensed into each well in columns 2-12. 200 μL of the each compound solution (at 256 mg/L) was dispensed into each well in column 1. 100 μL aliquots were pipetted from column 1 wells and dispensed into column 2 with a multichannel pipette (±2% coefficient of variation) thus diluting two-fold. 100 μL samples were then pipetted from column 2 wells and dispensed into column 3. The process was repeated through to column 10. The final 100 μL of diluted drug from column 10 was then discarded. Row 11 acted as a positive control (no compound, but organisms added), Row 12 acted as a negative control (no compound, and no organisms added).
(§3) 100 μL of the appropriate inoculum suspension in the appropriate media, as per CLSI guidelines, was added to the appropriate wells. […] All plates were incubated in the dark under aerobic or anaerobic conditions at 30-37° C. for 24-48 hours, according to the appropriate CLSI guideline. Plates were read visually 24-48 hours post inoculation. Endpoints of 100% inhibition were determined (CLSI interpretation endpoints following visual examination).
(§4) MIC50, MIC80, and 100% inhibition results are reported below in μg/mL in the following Tables, indicating each compound tested against a given species and strain: […]

[2] = tested on: Staphylococcus epidermidis NRS122; details: Staphylococcus epidermidis
Procedure: as §1, §2, §3, §4

[3] = tested on: Staphylococcus aureus ATCC43300; details: Staphylococcus aureus
Procedure: as §1, §2, §3, §4

[4] = tested on: Staphylococcus aureus EUP MRSA002; details: Staphylococcus aureus
Procedure: as §1, §2, §3, §4

[5] = tested on: Staphylococcus aureus NRS2 (ATCC700698); details: Staphylococcus aureus
Procedure: as §1, §2, §3, §4

[6] = tested on: Enterococcus faecalis ATCC29212; details: Enterococcus faecalis
Procedure: as §1, §2, §3, §4

[7] = tested on: Staphylococcus aureus AUR58 7005; details: Staphylococcus aureus
Procedure: as §1, §2, §3, §4

[8] = tested on: Staphylococcus aureus NRS384; details: Staphylococcus aureus
Procedure: as §1, §2, §3, §4

[9] = tested on: Staphylococcus aureus EUP SAU040; details: Staphylococcus aureus
Procedure: as §1, §2, §3, §4

[10] = tested on: Staphylococcus aureus NRS1 (ATCC700699); details: Staphylococcus aureus
Procedure: as §1, §2, §3, §4

[11] = tested on: Staphylococcus aureus EUP MRSA004; details: Staphylococcus aureus
Procedure: as §1, §2, §3, §4

[12] = tested on: Staphylococcus aureus NRS382; details: Staphylococcus aureus
Procedure: as §1, §2, §3, §4

[13] = tested on: Staphylococcus aureus AUR59 7005; details: Staphylococcus aureus
Procedure: as §1, §2, §3, §4

[14] = tested on: Staphylococcus aureus AUR131 007035; details: Staphylococcus aureus
Procedure: as §1, §2, §3, §4

[15] = tested on: Staphylococcus aureus AUR60 7005; details: Staphylococcus aureus
Procedure: as §1, §2, §3, §4

Bacillus cereus NCTC6349 = details: Bacillus cereus
Procedure: as §1, §2, §3, §4

[16] = tested on: Enterococcus faecium ATCC700221; details: Enterococcus faecium
Procedure: as §1, §2, §3, §4

CN[C@H](CC(C)C)C(=O)N[C@H]1C(=O)N[C@@H](CC(N)=O)C(=O)N[C@H]2C(=O)N[C@H]3C(=O)N[C@H](C(=O)N[C@H](C(=O)O)c4cc(O)cc(O)c4-c4cc3ccc4O)[C@H](O)c3ccc(c(Cl)c3)Oc3cc2cc(c3O[C@@H]2O[C@H](CO)[C@@H](O)[C@H](O)[C@H]2O[C@H]2C[C@](C)(N)[C@H](O)[C@H](C)O2)Oc2ccc(cc2Cl)[C@H]1O [Vancomycin, reference compound]
MIC ([1]; NRS7, read-out: 100% inhibition): 4 µg/mL (≈ 2.76 µM) | MIC50 ([1]; NRS7, read-out: MIC50 (50%)): 2 µg/mL (≈ 1.38 µM) | MIC80 ([1]; NRS7, read-out: MIC80 (80%)): 4 µg/mL (≈ 2.76 µM) | MIC ([2]; NRS122, read-out: 100% inhibition): 2 µg/mL (≈ 1.38 µM) | MIC50 ([2]; NRS122, read-out: MIC50 (50%)): 1 µg/mL (≈ 0.69 µM) | MIC80 ([2]; NRS122, read-out: MIC80 (80%)): 1 µg/mL (≈ 0.69 µM) | MIC ([3]; ATCC43300, read-out: 100% inhibition): 0.5 µg/mL (≈ 0.345 µM) | MIC50 ([3]; ATCC43300, read-out: MIC50 (50%)): 0.5 µg/mL (≈ 0.345 µM) | MIC80 ([3]; ATCC43300, read-out: MIC80 (80%)): 0.5 µg/mL (≈ 0.345 µM) | MIC ([4]; EUPMRSA002, read-out: 100% inhibition): 0.5 µg/mL (≈ 0.345 µM) | MIC50 ([4]; EUPMRSA002, read-out: MIC50 (50%)): 0.5 µg/mL (≈ 0.345 µM) | MIC80 ([4]; EUPMRSA002, read-out: MIC80 (80%)): 0.5 µg/mL (≈ 0.345 µM) | MIC ([5]; read-out: 100% inhibition): 1 µg/mL (≈ 0.69 µM) | MIC50 ([5]; read-out: MIC50 (50%)): 0.5 µg/mL (≈ 0.345 µM) | MIC80 ([5]; read-out: MIC80 (80%)): 1 µg/mL (≈ 0.69 µM) | MIC ([6]; ATCC29212, read-out: 100% inhibition): 4 µg/mL (≈ 2.76 µM) | MIC50 ([6]; ATCC29212, read-out: MIC50 (50%)): 4 µg/mL (≈ 2.76 µM) | MIC80 ([6]; ATCC29212, read-out: MIC80 (80%)): 4 µg/mL (≈ 2.76 µM) | MIC ([7]; AUR587005, read-out: 100% inhibition): 1 µg/mL (≈ 0.69 µM) | MIC50 ([7]; AUR587005, read-out: MIC50 (50%)): 1 µg/mL (≈ 0.69 µM) | MIC80 ([7]; AUR587005, read-out: MIC80 (80%)): 1 µg/mL (≈ 0.69 µM) | MIC ([8]; NRS384, read-out: 100% inhibition): 1 µg/mL (≈ 0.69 µM) | MIC50 ([8]; NRS384, read-out: MIC50 (50%)): 1 µg/mL (≈ 0.69 µM) | MIC80 ([8]; NRS384, read-out: MIC80 (80%)): 1 µg/mL (≈ 0.69 µM) | MIC ([9]; EUPSAU040, read-out: 100% inhibition): 1 µg/mL (≈ 0.69 µM) | MIC50 ([9]; EUPSAU040, read-out: MIC50 (50%)): 1 µg/mL (≈ 0.69 µM) | MIC80 ([9]; EUPSAU040, read-out: MIC80 (80%)): 1 µg/mL (≈ 0.69 µM) | MIC ([10]; read-out: 100% inhibition): 4 µg/mL (≈ 2.76 µM) | MIC50 ([10]; read-out: MIC50 (50%)): 2 µg/mL (≈ 1.38 µM) | MIC80 ([10]; read-out: MIC80 (80%)): 4 µg/mL (≈ 2.76 µM) | MIC ([11]; EUPMRSA004, read-out: 100% inhibition): 0.5 µg/mL (≈ 0.345 µM) | MIC50 ([11]; EUPMRSA004, read-out: MIC50 (50%)): 0.5 µg/mL (≈ 0.345 µM) | MIC80 ([11]; EUPMRSA004, read-out: MIC80 (80%)): 0.5 µg/mL (≈ 0.345 µM) | MIC ([12]; NRS382, read-out: 100% inhibition): 1 µg/mL (≈ 0.69 µM) | MIC50 ([12]; NRS382, read-out: MIC50 (50%)): 1 µg/mL (≈ 0.69 µM) | MIC80 ([12]; NRS382, read-out: MIC80 (80%)): 1 µg/mL (≈ 0.69 µM) | MIC ([13]; AUR597005, read-out: 100% inhibition): 1 µg/mL (≈ 0.69 µM) | MIC50 ([13]; AUR597005, read-out: MIC50 (50%)): 0.5 µg/mL (≈ 0.345 µM) | MIC80 ([13]; AUR597005, read-out: MIC80 (80%)): 0.5 µg/mL (≈ 0.345 µM) | MIC ([14]; AUR131007035, read-out: 100% inhibition): 0.5 µg/mL (≈ 0.345 µM) | MIC50 ([14]; AUR131007035, read-out: MIC50 (50%)): 0.5 µg/mL (≈ 0.345 µM) | MIC80 ([14]; AUR131007035, read-out: MIC80 (80%)): 0.5 µg/mL (≈ 0.345 µM) | MIC ([15]; AUR607005, read-out: 100% inhibition): 1 µg/mL (≈ 0.69 µM) | MIC50 ([15]; AUR607005, read-out: MIC50 (50%)): 0.5 µg/mL (≈ 0.345 µM) | MIC80 ([15]; AUR607005, read-out: MIC80 (80%)): 1 µg/mL (≈ 0.69 µM) | MIC (Bacillus cereus NCTC6349; NCTC6349, read-out: 100% inhibition): 2 µg/mL (≈ 1.38 µM) | MIC50 (Bacillus cereus NCTC6349; NCTC6349, read-out: MIC50 (50%)): 1 µg/mL (≈ 0.69 µM) | MIC80 (Bacillus cereus NCTC6349; NCTC6349, read-out: MIC80 (80%)): 2 µg/mL (≈ 1.38 µM) | MIC ([16]; ATCC700221, read-out: 100% inhibition): > 16 µg/mL | MIC50 ([16]; ATCC700221, read-out: MIC50 (50%)): > 16 µg/mL | MIC80 ([16]; ATCC700221, read-out: MIC80 (80%)): > 16 µg/mL
